US20240238299A1, “USE OF PYRROLOPYRIMIDINE COMPOUND” (GUANGZHOU JOYO PHARMATECH CO., LTD, priority 2021, published 2024)

Test system: NO secretion by BV-2 cell line
Experiment: NO secretion by LPS/IFN-γ-activated BV-2 cells (Griess Reagent System)
Format: cell-based, Mouse
Protocol: Step 1: BV-2 cells in the exponential growth phase were collected, and viable cells were counted using a Vi-Cell XR cell counter. The cell suspension was adjusted to an appropriate concentration with the culture medium. 160 μL of cell suspension was added to each well of a 96-well cell culture plate, resulting in a final cell concentration of 12,000 cells per well. The culture plate was incubated for 24 hours in a 37° C., 5% CO2 incubator.
Step 2: A 10 mM DMSO compound stock solution was diluted at a ratio of 1:4 using DMSO to prepare a series of 1000× test compound solutions. These 1000× test compound solutions were further diluted at a ratio of 1:100 using cell culture medium to prepare a series of 10× test compound solutions. Finally, the 96-well plate that had been plated with cells the day before was taken out. According to the experimental well plate loading design, 20 μL of the corresponding 10× solution was added to each well, with three duplicate wells for each drug concentration. The final concentrations of the test compounds used in the experiment (i.e., 1× solutions) have a range of 10, 2.5, 0.625, 0.156, 0.0391, 0.0098, and 0.0024 μM. The final DMSO concentration in each well was 0.1%.
After the compound was added, the 96-well plate was incubated for half an hour in the 37° C., 5% CO2 incubator.
After the pre-incubation was completed, 20 μL of culture medium containing 100 ng/mL LPS and 100 ng/mL IFN-γ (final concentrations of 10 ng/mL LPS and 10 ng/mL IFN-7) was added to each well to induce the activation of BV-2 cells. The culture plate was then incubated for 24 hours in the 37° C., 5% CO2 incubator.
Step 3: After 24 hours of treatment with the compound, the culture plate was centrifuged at 1200 rpm for 5 minutes. The supernatant was pipetted into another plate, which was sealed with tinfoil and stored at −20° C. for future ELISA and Griess reagent system assays. The cell culture plate from which the supernatant had been removed was immediately used for cell proliferation assays using the CellTiter-Glo (CTG) method.
Step 5 (NO and CCL5 detection): The CCL5 levels in the supernatant were detected using an ELISA kit (Mouse CCL5/RANTES DuoSet ELISA; R&D; DY478-05), following the instructions provided with the kit. The nitric oxide (NO) levels in the supernatant were detected using the Griess Reagent System (Promega; G2930), following the instructions provided with the kit.
Step 1: Firstly, the optical density values obtained from ELISA and Griess tests were used to plot a standard curve and calculate the absolute concentrations of each sample. The absolute concentration was then calibrated using the CTG fluorescence value corresponding to each sample to obtain the calibrated concentration. The formula for calculating the calibrated concentration was: calibrated concentration=absolute concentration/CTG fluorescence value of the same sample.
Step 2: Based on the calibrated concentration of each sample, the relative percentage of CCL5 or NO secretion (i.e., CCL5 production (%) or NO production (%)) at each test concentration relative to the blank (DMSO) group was calculated. The formula for calculating the relative percentage was: relative percentage %=(calibrated concentration of the test concentration group)/(calibrated concentration of the blank group).
Step 3: Finally, the relative percentage of CCL5 secretion or the relative percentage of NO secretion was plotted against the logarithm of the compound concentration. […]

IC50 (Mus musculus, BV-2, 24 h co-incubation, read-out: IC50 on NO secretion by BV-2): 487 nM
Structure (SMILES): CN(c1ncnc2[nH]ccc12)[C@@H]1CCc2cc(C#N)nn2C1 [Compound I]
Maximum inhibition rate on NO secretion by BV-2 (24 h co-incubation, up to 10 μM): 100%
